Reference: patent publication US7989464B2, “mGluR1 antagonists as therapeutic agents” (Schering Corporation, priority 2004, dated 2011)

biological target: T1, hmGluR1 receptor (Homo sapiens, UniProt Q13255); test: IC50 determination: intracellular calcium mobilization (FLIPR) upon Quisqualate stimulation in CHO cells stably expressing hmGluR1; format: cell-based; settings: against Quisqualate 1 μM (EC80), FLIPR calcium mobilization, read-out: IC50 Class
T1 construct: expressed in transfected cells
How it was run: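 CHO cells stably expressing hmGluR1 were kept overnight in DMEM high glucose with GPT and 1 mM pyruvate, then loaded 2 h with Calcium 3 dye.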

T1 sequence (Q13255 19-1194): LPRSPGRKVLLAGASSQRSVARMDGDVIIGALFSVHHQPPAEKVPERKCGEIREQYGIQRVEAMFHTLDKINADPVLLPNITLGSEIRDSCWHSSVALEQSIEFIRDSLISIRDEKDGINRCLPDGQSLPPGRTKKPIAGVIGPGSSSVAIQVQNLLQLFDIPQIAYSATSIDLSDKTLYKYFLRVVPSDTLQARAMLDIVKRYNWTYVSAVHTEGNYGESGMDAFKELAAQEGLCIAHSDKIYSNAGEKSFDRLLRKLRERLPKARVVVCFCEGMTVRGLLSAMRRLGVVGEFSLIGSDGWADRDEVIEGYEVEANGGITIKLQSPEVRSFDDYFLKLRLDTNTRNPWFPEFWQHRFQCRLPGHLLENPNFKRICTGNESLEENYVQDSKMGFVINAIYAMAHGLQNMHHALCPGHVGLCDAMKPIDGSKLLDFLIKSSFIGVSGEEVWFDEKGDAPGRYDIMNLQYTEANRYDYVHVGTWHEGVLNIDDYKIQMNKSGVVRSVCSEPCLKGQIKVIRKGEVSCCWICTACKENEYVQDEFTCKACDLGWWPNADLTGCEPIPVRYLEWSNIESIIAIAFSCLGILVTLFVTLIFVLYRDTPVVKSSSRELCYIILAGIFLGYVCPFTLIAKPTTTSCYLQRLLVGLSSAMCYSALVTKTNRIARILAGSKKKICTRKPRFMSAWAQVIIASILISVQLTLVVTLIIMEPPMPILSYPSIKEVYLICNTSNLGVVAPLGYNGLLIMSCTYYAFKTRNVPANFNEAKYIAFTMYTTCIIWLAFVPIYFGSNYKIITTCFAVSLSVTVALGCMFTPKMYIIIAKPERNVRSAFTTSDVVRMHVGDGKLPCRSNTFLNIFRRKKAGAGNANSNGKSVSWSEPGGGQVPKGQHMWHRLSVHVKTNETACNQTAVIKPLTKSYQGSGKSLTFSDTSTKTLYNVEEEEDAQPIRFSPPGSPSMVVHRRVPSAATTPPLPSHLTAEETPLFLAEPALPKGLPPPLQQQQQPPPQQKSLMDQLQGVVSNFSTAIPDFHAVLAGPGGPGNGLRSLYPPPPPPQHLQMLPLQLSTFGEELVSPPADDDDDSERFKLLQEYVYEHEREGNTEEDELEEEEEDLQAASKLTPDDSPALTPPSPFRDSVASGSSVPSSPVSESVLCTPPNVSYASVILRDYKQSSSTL

Structure (SMILES)	IC50 [nM]
CN(C)c1c(Cl)cnc2sc3c(=O)n(-c4ccc(Cl)cc4)cnc3c12 [compound 199]	< 50
CNc1c(Cl)cnc2sc3c(=O)n(-c4ccc(Cl)cc4)cnc3c12 [compound 200]	< 50
CCc1ncnc2sc3c(=O)n(-c4ccc(OC)cc4)cnc3c12 [compound 201]	< 50

Results, then the compound that gave them:

IC50 [nM]	Structure (SMILES)
< 50	CCc1ncnc2sc3c(=O)n(-c4ccc(Cl)cc4)cnc3c12 [compound 202]
50 to 150	CN(C)c1ccnc2sc3c(=O)n(-c4ccc(OS(C)(=O)=O)cc4)cnc3c12 [compound 204]
150 to 1000	CNc1c(CNC2CCC2)cnc2sc3c(=O)n(-c4ccc(OC)cc4)cnc3c12 [compound 208]
